Target: NL-PRMT5 (NLuc-PRMT5) (Homo sapiens, UniProt O14744)
Assay: NanoBRET target engagement, displacement of CBH-002
Assay type: cell-based

Sequence of NL-PRMT5 (NLuc-PRMT5) (O14744 2-637): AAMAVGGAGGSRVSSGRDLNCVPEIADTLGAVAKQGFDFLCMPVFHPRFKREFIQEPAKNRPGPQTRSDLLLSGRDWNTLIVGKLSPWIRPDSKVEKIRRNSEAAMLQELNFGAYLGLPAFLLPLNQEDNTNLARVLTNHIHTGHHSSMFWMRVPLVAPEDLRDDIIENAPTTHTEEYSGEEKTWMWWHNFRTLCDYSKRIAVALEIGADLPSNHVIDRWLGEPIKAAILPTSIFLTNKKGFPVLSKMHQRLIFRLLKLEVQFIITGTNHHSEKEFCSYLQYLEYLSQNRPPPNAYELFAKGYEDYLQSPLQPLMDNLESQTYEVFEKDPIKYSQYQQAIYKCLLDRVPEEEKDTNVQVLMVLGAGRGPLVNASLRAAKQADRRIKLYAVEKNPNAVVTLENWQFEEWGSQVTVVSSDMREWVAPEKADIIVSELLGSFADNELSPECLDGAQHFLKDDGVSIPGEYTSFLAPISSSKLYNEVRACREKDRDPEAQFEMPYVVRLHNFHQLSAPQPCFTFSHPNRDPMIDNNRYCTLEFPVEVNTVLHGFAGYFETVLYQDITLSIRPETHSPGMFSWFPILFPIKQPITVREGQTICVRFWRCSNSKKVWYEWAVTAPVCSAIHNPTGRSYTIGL

Structure (SMILES): Nc1ncnc2c1ccn2[C@@H]1O[C@H]([C@H](O)c2ccccc2)[C@@H](O)[C@H]1O [LLY-283]
- EC50: 300 ± 100 nM

Source: paper doi:10.1101/2022.01.20.477145v2 (biorxiv, 2022)
